Among the test systems are SF-268; SK-OV-3; EKVX; MDA-N; OVCAR-3; UACC-62; SR; UACC-257; SNB-19; SN12C; A549; T47D; ACHN; SK-MEL-28; HOP-62; NCI-H460; BT-549; A498; NCI-H23.
What all share (assay): inhibition of tumour cell growth, NCI panel, 48 h

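These data come from cells grown in 96-well plates and exposed to compound for 48 hours at five concentrations. GI50 is the concentration that inhibits growth by half.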 Activity calls are given as the source filed them. Rule as the data show it: active = GI50 up to about 1.1 µM and inactive = higher. Where only a bound is given, the exact number is not on record here.

For the compound `NC(=O)C1=CC2C3C=CC2(O)C(=O)OC3O1` (configuration not stated), the GI50 in the test on SF-268 is 3.73 µM (inactive); in the test with SK-OV-3, 13.5 µM (inactive); in the test with EKVX it was 3.44 µM (inactive); in the test with MDA-N, 2.61 µM (inactive); with OVCAR-3, 2.43 µM (inactive); in the test with UACC-62, 2.71 µM (inactive). Also, the GI50 in the test with SR is 1.68 µM (inactive); in the test on UACC-257, 2.58 µM (inactive); with SNB-19, 13.1 µM (inactive); in the test with SN12C, 4.28 µM (inactive); in the test on A549, 34.7 µM (inactive); with T47D, 3.36 µM (inactive). The GI50 is 3.44 µM (inactive) in the test on ACHN; 2.34 µM (inactive) in the test on SK-MEL-28; 9.06 µM (inactive) in the test with HOP-62; 17.9 µM (inactive) in the test on NCI-H460; 4.06 µM (inactive) with BT-549; 32.7 µM (inactive) in the test on A498. Moreover, the GI50 in the test on NCI-H23 is 2.91 µM (inactive).

On to `c1ccc(-c2c[nH]c(SC(c3ccccc3)c3ccccc3)n2)cc1`, for which the GI50 with SF-268 was 43.8 µM (inactive); in the test on SK-OV-3, 46.9 µM (inactive); in the test on EKVX, 13.3 µM (inactive); with MDA-N, 20.7 µM (inactive); in the test on OVCAR-3, 33.4 µM (inactive); in the test with UACC-62, 14.2 µM (inactive). Besides, the GI50 in the test on SR is 13.3 µM (inactive); in the test with UACC-257 it was 18 µM (inactive); in the test with SNB-19, 38 µM (inactive); in the test with SN12C, 17.4 µM (inactive); in the test on A549, 21.9 µM (inactive); with T47D, 8.95 µM (inactive). In addition, the GI50 was 24.5 µM (inactive) with ACHN; 33.7 µM (inactive) in the test with SK-MEL-28; 29 µM (inactive) in the test with HOP-62; 10.2 µM (inactive) in the test on NCI-H460; 25.1 µM (inactive) in the test on BT-549; 24.7 µM (inactive) in the test on A498. Further, in the test with NCI-H23, the GI50 was 14.7 µM (inactive).

Regarding `COc1cc(CNc2c3ccccc3nc3ccccc23)cc(OC)c1OC`, the GI50 in the test on SF-268 is 4.07 µM (inactive); in the test on SK-OV-3 it was 5.47 µM (inactive); in the test with EKVX, 5.78 µM (inactive); with MDA-N, 2.76 µM (inactive); with OVCAR-3, 5.21 µM (inactive); in the test with UACC-62, 2.43 µM (inactive). For the same compound, the GI50 with SR was 3.08 µM (inactive); with UACC-257 it was 3.11 µM (inactive); in the test on SNB-19 it was 4.63 µM (inactive); with SN12C, 2.88 µM (inactive); in the test with A549 it was 3.32 µM (inactive); in the test on T47D, 6.38 µM (inactive). In addition, the GI50 is 3.07 µM (inactive) in the test on ACHN; 5.04 µM (inactive) with SK-MEL-28; 2.93 µM (inactive) with HOP-62; 2.57 µM (inactive) in the test on NCI-H460; 3.87 µM (inactive) with BT-549; 1.82 µM (inactive) in the test on A498. Besides, the GI50 in the test on NCI-H23 is 3.46 µM (inactive).

Regarding `CCC(=O)C(CCN1CCC2(CCCc3ccccc32)CC1)(c1ccccc1)c1ccccc1`, the GI50 is 5.92 µM (inactive) in the test with SF-268; 3.19 µM (inactive) with SK-OV-3; 4 µM (inactive) with EKVX; 3.96 µM (inactive) in the test on MDA-N; 2.2 µM (inactive) in the test with OVCAR-3; 3.72 µM (inactive) with UACC-62. Also, the GI50 is 1.66 µM (inactive) in the test with SR; 2.05 µM (inactive) in the test with UACC-257; 4.75 µM (inactive) in the test with SNB-19; 2.29 µM (inactive) with SN12C; 3.63 µM (inactive) in the test with A549; 3.29 µM (inactive) with T47D. Moreover, the GI50 in the test on ACHN was 2.85 µM (inactive); in the test with SK-MEL-28, 4.65 µM (inactive); in the test on HOP-62, 3.28 µM (inactive); in the test on NCI-H460, 2.52 µM (inactive); in the test on BT-549 it was 0.685 µM (active); in the test with A498, 1.98 µM (inactive). In addition, the GI50 in the test on NCI-H23 was 2.15 µM (inactive).

Regarding `CC(C)(N)C(=O)N[C@@H]1C(=O)N2[C@@H]1SC(C)(C)[C@@H]2C(=O)O`, the GI50 in the test on SF-268, with SK-OV-3, with EKVX, in the test on MDA-N, with OVCAR-3 and with UACC-62 was > 100 µM (inactive) each time. Further, the GI50 in the test with SR, in the test with UACC-257, in the test with SNB-19, with SN12C, in the test with A549 and in the test with T47D was > 100 µM (inactive) in each case. Also, the GI50 in the test on ACHN, in the test with SK-MEL-28, in the test with HOP-62, with NCI-H460, in the test with BT-549 and in the test on A498 was > 100 µM (inactive) each time. Moreover, in the test with NCI-H23, the GI50 was > 100 µM (inactive).

Turning to `Cc1ccc(S(=O)(=O)N/C(=N\O)Nc2ccc(Cl)c(Cl)c2)cc1`, the GI50 in the test with SF-268 is 6.01 µM (inactive); in the test with SK-OV-3, 15 µM (inactive); with EKVX, 5.92 µM (inactive); with MDA-N, 3.57 µM (inactive); in the test on OVCAR-3 it was 4.41 µM (inactive); with UACC-62, 11.7 µM (inactive). Moreover, the GI50 is 5.69 µM (inactive) in the test with SR; 4.68 µM (inactive) in the test on UACC-257; 7.4 µM (inactive) in the test with SNB-19; 2.12 µM (inactive) in the test with SN12C; 13.3 µM (inactive) with A549; 11.4 µM (inactive) in the test on T47D. The GI50 with ACHN was 11.9 µM (inactive); with SK-MEL-28, 3.34 µM (inactive); in the test on HOP-62 it was 14.1 µM (inactive); in the test on NCI-H460 it was 9.95 µM (inactive); in the test on BT-549, 9.64 µM (inactive); in the test with A498 it was 10.3 µM (inactive). Also, the GI50 in the test on NCI-H23 was 15.7 µM (inactive).

Turning to `O=C1CCCCC/C1=C\c1ccc(F)cc1`, the GI50 in the test on SF-268 was > 100 µM (inactive); with SK-OV-3, > 100 µM (inactive); in the test on EKVX, > 100 µM (inactive); with MDA-N it was > 100 µM (inactive); in the test with OVCAR-3 it was > 100 µM (inactive); in the test on UACC-62, 40.3 µM (inactive). The GI50 was 47.6 µM (inactive) in the test with SR; 52.2 µM (inactive) in the test with UACC-257; > 100 µM (inactive) with SNB-19; > 100 µM (inactive) in the test with SN12C; > 100 µM (inactive) with A549; > 100 µM (inactive) in the test with T47D. Moreover, the GI50 in the test with ACHN was > 100 µM (inactive); in the test with SK-MEL-28 it was > 100 µM (inactive); with HOP-62, > 100 µM (inactive); in the test on NCI-H460, 50.1 µM (inactive); with BT-549, 99.1 µM (inactive); with A498, > 100 µM (inactive). For the same compound, the GI50 in the test on NCI-H23 is > 100 µM (inactive).

In the case of `NC(=O)NC(=O)c1cccc(NC(=O)CBr)c1`, the GI50 in the test with SF-268 is < 0.0158 µM (active); in the test with SK-OV-3, 0.0272 µM (active); with EKVX, 0.766 µM (active); in the test on MDA-N, < 0.0134 µM (active); in the test with OVCAR-3, < 0.01 µM (active); in the test with UACC-62, < 0.0175 µM (active). The GI50 in the test on SR was < 0.01 µM (active); with UACC-257, < 0.0311 µM (active); in the test with SNB-19, 0.515 µM (active); in the test on SN12C it was < 0.0206 µM (active); with A549, 0.912 µM (active); with T47D, 1.42 µM (inactive). For the same compound, the GI50 in the test with ACHN is < 0.0209 µM (active); in the test on SK-MEL-28, 1.44 µM (inactive); with HOP-62, 0.0577 µM (active); in the test with NCI-H460, < 0.0509 µM (active); in the test on BT-549, < 0.02 µM (active); in the test with A498 it was 0.102 µM (active). In addition, the GI50 with NCI-H23 was < 0.0195 µM (active).

The record behind these values is ChEMBL document CHEMBL1201862, “PubChem BioAssay data set” (2004).
